This is an account of results in ChEMBL document CHEMBL5143642, “Thiosemicarbazone derivatives: Evaluation as cruzipain inhibitors and molecular modeling study of complexes with cruzain” (Bioorg Med Chem, 2022).

SMILES strings stand for the structures.

Sequence of Cruzipain (P25779 whole entry): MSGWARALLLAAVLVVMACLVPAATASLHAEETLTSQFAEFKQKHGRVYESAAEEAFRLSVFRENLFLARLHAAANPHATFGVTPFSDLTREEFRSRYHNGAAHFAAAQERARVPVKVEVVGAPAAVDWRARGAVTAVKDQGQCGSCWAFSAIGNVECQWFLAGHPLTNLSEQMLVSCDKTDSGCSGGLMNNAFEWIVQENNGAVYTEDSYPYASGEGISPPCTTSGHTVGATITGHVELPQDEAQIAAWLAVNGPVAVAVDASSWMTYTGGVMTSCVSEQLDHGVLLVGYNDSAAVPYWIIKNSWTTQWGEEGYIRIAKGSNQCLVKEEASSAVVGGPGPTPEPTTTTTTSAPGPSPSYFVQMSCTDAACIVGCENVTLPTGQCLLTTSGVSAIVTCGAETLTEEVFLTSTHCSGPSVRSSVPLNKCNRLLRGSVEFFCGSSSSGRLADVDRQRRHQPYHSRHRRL

The assay has as its target Cruzipain (Trypanosoma cruzi, UniProt P25779). Description: Inhibition of epimastigote form of Trypanosoma cruzi Tulahuen 2 cruzain assessed as reduction in 7-amino-4-methylcoumarin release incubated for 20 mins folllowed by Z-FR-AMC substrate addition and measured up to 45 mins by fluorometric assay.
As to `NC(=S)N/N=C/c1cccc(Cl)c1`, the 50% inhibitory concentration (IC50) stood at 105 µM.

Take `CC/C(=N\NC(N)=S)c1cccc([N+](=O)[O-])c1`: the IC50 is 0.753 µM. With `N/C(S)=N/N=C/c1ccc(Cl)c(Cl)c1` the figure was 0.0816 µM; with `C/C(=N\NC(N)=S)c1ccc([N+](=O)[O-])cc1`, 7.6 µM; with `C/C(=N\NC(N)=S)c1cccc(Cl)c1`, 29.9 µM. With `C/C(=N\N=C(\N)S)c1ccc(Cl)c(Cl)c1` the figure was 0.147 µM; with `CC/C(=N\N=C(\N)S)c1cccc(Cl)c1`, 23.2 µM; with `CC/C(=N\N=C(\N)S)c1ccc(Cl)c(Cl)c1`, 0.0695 µM.

In the case of `COc1cccc(/C(C)=N/N=C(/N)S)c1`, the IC50 was 1470 µM.
